Reference: article PMC8836073, “Activatable Peptides for Rapid and Simple Visualization of Protease Activity Secreted in Living Cells” (International Journal of Molecular Sciences, 2022)

Experiments:
[1] = target: T1, MMP2 secreted by HT-1080 cells (Homo sapiens, UniProt P08253); test: Pep1 intracellular fluorescence in HT-1080 cells with MMP2 inhibitor; type: cell-based; conditions: HT-1080, Pep1 final 10 μM, MMP2 inhibitor (Figure S3)
T1 construct: endogenous in cells; host or cells: HT-1080 human fibrosarcoma cells
T1 sequence (P08253 110-660): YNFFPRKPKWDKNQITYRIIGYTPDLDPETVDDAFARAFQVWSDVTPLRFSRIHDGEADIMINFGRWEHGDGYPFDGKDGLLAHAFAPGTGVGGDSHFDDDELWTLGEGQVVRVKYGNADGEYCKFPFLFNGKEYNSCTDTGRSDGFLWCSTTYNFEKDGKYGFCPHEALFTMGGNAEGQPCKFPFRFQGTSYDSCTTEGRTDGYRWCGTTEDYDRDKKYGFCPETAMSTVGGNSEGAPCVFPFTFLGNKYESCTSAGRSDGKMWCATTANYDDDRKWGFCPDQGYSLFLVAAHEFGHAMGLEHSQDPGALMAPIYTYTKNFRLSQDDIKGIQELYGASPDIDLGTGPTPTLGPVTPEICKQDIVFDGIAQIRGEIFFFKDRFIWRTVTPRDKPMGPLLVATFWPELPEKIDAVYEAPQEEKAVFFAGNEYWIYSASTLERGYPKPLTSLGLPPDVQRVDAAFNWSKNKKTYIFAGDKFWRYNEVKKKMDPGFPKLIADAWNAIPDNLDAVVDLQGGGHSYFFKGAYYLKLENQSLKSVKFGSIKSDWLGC
Protocol: (§1) For live cell imaging, HT-1080 or HT-29 cells were cultured in Lab-Tek II chambered coverglass (Thermo Fisher Scientific) containers in RPMI-1640 media containing 10% FBS and 1× P/S at 37 °C. When the cells were 80% confluent, the culture medium was rinsed and changed to a fresh serum-free medium, followed by the addition of peptide probes at a final concentration of 10 μM. For organelle images, nuclei and lysosomes (or late endosomes) were stained with NucBlue (1 drop) and Lysotracker Red (50 nM) in serum-free media, respectively, and incubated in the dark for 10 min. After washing of the cells and removal of the chamber, cells adhering to the coverglass were subjected to bright-field or fluorescent images using a confocal microscope (Nikon C2si+, Japan). The excitation/emission wavelengths of NucBlue, FITC, and Lysotracker Red were 352/454 nm, 488/525 nm, and 577/590 nm, respectively. Typically, images were collected using a pixel dwell time of 10.3 μs on a 512 × 512 pixel image with 1 mW light power at the objective through a pinhole (60 μm) to reach the PMT. The frame rate was rather slow; the frame rate was about 0.255 FPS (frame per second) for a 512 × 512 frame (i.e., 1 frame per 3.9 s). To gain time-lapse images for FITC in living cells, one video file was constructed with images taken every 20 s for 30 min. […]

[2] = system: HeLa cells; test: Peptide uptake in HeLa cells; type: cell-based; conditions: unlike HT-1080 cells
[3] = system: HT-1080 cells (MMP2-positive); test: Live cell confocal imaging of peptide uptake in HT-1080 cells; type: cell-based, Human; conditions: for intracellular fluorescence (confocal images, FITC channel): HT-1080, peptide final 10 μM in serum-free CM, 2 h after treatment
Protocol: For live cell imaging, HT-1080 or HT-29 cells were cultured in Lab-Tek II chambered coverglass (Thermo Fisher Scientific) containers in RPMI-1640 media containing 10% FBS and 1× P/S at 37 °C. When the cells were 80% confluent, the culture medium was rinsed and changed to a fresh serum-free medium, followed by the addition of peptide probes at a final concentration of 10 μM. For organelle images, nuclei and lysosomes (or late endosomes) were stained with NucBlue (1 drop) and Lysotracker Red (50 nM) in serum-free media, respectively, and incubated in the dark for 10 min. After washing of the cells and removal of the chamber, cells adhering to the coverglass were subjected to bright-field or fluorescent images using a confocal microscope (Nikon C2si+, Japan). The excitation/emission wavelengths of NucBlue, FITC, and Lysotracker Red were 352/454 nm, 488/525 nm, and 577/590 nm, respectively. Typically, images were collected using a pixel dwell time of 10.3 μs on a 512 × 512 pixel image with 1 mW light power at the objective through a pinhole (60 μm) to reach the PMT. The frame rate was rather slow; the frame rate was about 0.255 FPS (frame per second) for a 512 × 512 frame (i.e., 1 frame per 3.9 s). To gain time-lapse images for FITC in living cells, one video file was constructed with images taken every 20 s for 30 min. Imaging analysis was performed using the NIS-Elements microscope imaging software (Ver 2.0).

[4] = FITC fluorescence; no reference given; cited from earlier work
Protocol: Figure 4A,B were nearly identical to the images obtained at 2 h in Figure 3A,B, respectively. […] There was no signi ...

[5] = target: T2, active MMP9 (Homo sapiens, UniProt P14780); test: Fluorescent gel electrophoresis of peptide cleavage by active MMP9; type: biochemical; conditions: peptide final 50 μM, active MMP9 final 0.1 μg in 40 μL; 20 mM Tris-HCl, 5 mM CaCl2, 100 mM NaCl, pH 7.6; 120 min, 37 °C; 0.8% agarose gel, FITC fluorescence
T2 construct: active MMP2 (No. PF023), and active MMP9 (No. PF024) were purchased from Merck Millipore; purchased Merck Millipore PF024
T2 sequence (P14780 107-707 limits assumed): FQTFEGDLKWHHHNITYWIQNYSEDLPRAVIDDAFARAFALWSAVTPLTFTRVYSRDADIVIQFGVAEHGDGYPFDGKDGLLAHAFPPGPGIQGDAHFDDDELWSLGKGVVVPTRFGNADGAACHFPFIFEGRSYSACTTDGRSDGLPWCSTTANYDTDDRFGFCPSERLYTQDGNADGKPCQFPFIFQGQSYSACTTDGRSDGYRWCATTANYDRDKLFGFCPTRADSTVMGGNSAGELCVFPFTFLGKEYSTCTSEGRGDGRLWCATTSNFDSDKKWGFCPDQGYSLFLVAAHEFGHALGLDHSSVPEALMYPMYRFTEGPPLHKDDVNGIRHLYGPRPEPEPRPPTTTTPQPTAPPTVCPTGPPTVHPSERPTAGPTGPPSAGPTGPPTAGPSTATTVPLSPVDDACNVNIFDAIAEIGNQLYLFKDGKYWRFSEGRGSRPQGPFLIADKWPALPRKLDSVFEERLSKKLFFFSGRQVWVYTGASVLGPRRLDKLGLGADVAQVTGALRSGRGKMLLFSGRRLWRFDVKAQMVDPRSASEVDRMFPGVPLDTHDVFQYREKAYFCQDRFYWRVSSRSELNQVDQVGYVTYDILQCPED
Protocol: (§2) Fluorescent gel electrophoresis was performed on 0.8% agarose gel at 50 V for 60 min. The agarose gel was cast and run using 0.5 × TB buffer. For the protease assay, Pep1 or Pep2 (1 μL at 2 mM, final 50 μM) was mixed with active MMP2 or active MMP9 (1 μL, final 0.1 μg) at a final volume of 40 μL in standard reaction buffer (20 mM Tris-HCl containing 5 mM CaCl2 and 100 mM NaCl, pH 7.6). The reactants were incubated in a tube for 120 min at 37 °C to induce the enzyme reaction, and 30 μL of the solution were loaded onto the agarose gel. As a control, a solution of Pep1 or Pep 2 (1 μL at 2 mM) without enzymes was resuspended in a reaction buffer (for a total of 40 μL), and the aliquot (30 μL) was used in gel electrophoresis. The fluorescent image of the agarose was captured using a home-built transilluminator equipped with a blue light-emitting diode lamp. The original image underwent a pseudo-color imaging process using an image-editing function in Microsoft PowerPoint 365.

[6] = target: T3, active MMP2 (Homo sapiens, UniProt P08253); test: Fluorescent gel electrophoresis of peptide cleavage by active MMP2; type: biochemical; conditions: peptide final 50 μM, active MMP2 final 0.1 μg in 40 μL; 20 mM Tris-HCl, 5 mM CaCl2, 100 mM NaCl, pH 7.6; 120 min, 37 °C; 0.8% agarose gel, FITC fluorescence
T3 construct: active MMP2 (No. PF023), and active MMP9 (No. PF024) were purchased from Merck Millipore; purchased Merck Millipore PF023
T3 sequence (P08253 110-660): T1 sequence (P08253 110-660)
Protocol: as §2

[7] = system: HT-29 cells (MMP2-negative); test: Live cell confocal imaging of peptide uptake in HT-29 cells; type: cell-based, Human
Protocol: as §1

Compound | uptake by HeLa cells [2] | intracellular fluorescence (confocal images, FITC channel) ([3]; 37 °C) | cleavage by active MMP9 (fluorescent band shift on agarose gel) [5] | cleavage by active MMP2 (fluorescent band shift on agarose gel) [6] | also measured
O=C(O)[C@@H](Cc1ccccc1)NS(=O)(=O)c1ccc(-c2ccccc2)cc1 [MMP2 inhibitor, (2R)-2-[(4-biphenylylsulfonyl)amino]-3-phenylpropionic acid] |  |  |  |  | effect on intracellular fluorescence intensity of Pep1 [1]: significantly reduced
fluorescein isothiocyanate [FITC] |  |  |  |  | pKa [4]: 6.5
EEEEGGIPVSLRSGGGRRRRK-FITC [Pep1] |  | strong fluorescence images | less effective than that by MMP2 | strong fluorescent band shift | intracellular fluorescence (confocal images, FITC channel) ([7]; HT-29, peptide final 10 μM in serum-free CM, 2 h after treatment, 37 °C): No significant fluorescence images; time-lapse fluorescence (30 min) ([7]; living HT-29, Pep1 final 10 μM, 30 min): no significant increase; cellular uptake ([3]; HT-1080 cells, 30 min, percentage of FITC-stained cells over total cells): 40~60%; time-lapse signal intensity (0 to 30 min) ([3]; living HT-1080, peptide final 10 μM, 37 °C, compared to Pep2, triplicate experiments): increased even after just 5 min

Now from value to compound, other results behind:

uptake by HeLa cells [2] | intracellular fluorescence (confocal images, FITC channel) ([3]; 37 °C) | cleavage by active MMP9 (fluorescent band shift on agarose gel) [5] | cleavage by active MMP2 (fluorescent band shift on agarose gel) [6] | Compound | also measured
did not take up | strong fluorescence images |  |  | GGIPVSLRSGGGRRRRK-FITC [Pep3, FITC-labeled positive control peptide without E4] | 
did not take up |  |  |  | LRSGGG-R4-FITC [cleaved Pep1, fluorescent fragment of Pep1 after MMP2 cleavage] | 
 | No significant fluorescence images | did not show any fluorescent band shifts | did not show any fluorescent band shifts | EEEEGGRRRRK-FITC [Pep2] | 
